The source of these data is patent publication US8778413B2, “Dosing regimens and methods of treatment using carbon monoxide” (Ikaria, Inc., priority 2010, dated 2014).

Each structure is given as a SMILES string. Entries after “also recorded” stand apart in the source; their conditions may differ. Read-outs that look alike come from different tables or passages of the source. Marks after values point to notes of the source that are not given here.

For series [1] the following is noted: water at 0° C.; cited from earlier work.
Series [2] is classed as in vivo, human. The settings on record: for CL/F, based on net COHb: intra-operative. The protocol:
(§1) Study subjects receive either (i) 12-48 hours post-operatively following renal transplant, a single dose of placebo (i.e., O2 30% in nitrogen) or carbon monoxide (Covox 12 mg/L) at 0.7 mg/kg or 2 mg/kg via inhalation for a time period of 1 hour, or (ii) intra-operatively during renal transplant surgery (at the time of re-anastomosis), a dose of placebo (i.e., O2 30% in nitrogen), 2 mg/kg or 3 mg/kg carbon monoxide via inhalation for a time period of 1 hour.
COHb exposure is measured using conventional methods. For example, COHb exposure can be ascertained by measuring the amount present in venous blood using a device known as a CO-OXI meter. For both post- and intra-operative dosing regimens, dose-dependency of COHb Cmax and AUC is evaluated, the results of which are shown graphically in FIGS. 1A and 1B.

The test system of series [3] is renal transplant recipients. In words: Neurocognitive functions (digit vigilance speed, numeric working memory accuracy, picture recognition). It counts as in vivo, human. The settings on record: up to 3 mg/kg inhaled 1 hour, up to 24 weeks post-treatment. As for the experimental part: FIG. 5, FIG. 6 and FIG. 7 illustrate the impact of carbon monoxide treatment on neurocognitive functions over 6 months in subjects receiving kidney transplants following inhalation of placebo, 0.7 mg/kg, 2 mg/kg or 3 mg/kg carbon monoxide through the evaluation of individual digit vigilance speed (FIG. 5), numeric working memory accuracy (FIG. 6) and picture recognition (FIG. 7). The CO doses were administered either 12-48 hours post-operatively following renal transplant (placebo, 0.7 mg/kg or 2 mg/kg) or intra-operatively during renal transplant surgery (placebo, 2 mg/kg or 3 mg/kg). Visit #1: Screening; Visit #4: Day 0; Visit #6: Day 1; Visit #14-16: Day 28; Visit #17-18: Follow-up Weeks 16-24. The open symbols reflect individual observations, the thin lines reflect individual trends and thick lines reflect the average trend based on linear regression. […]
All renal transplant recipients receiving carbon monoxide up to 3 mg/kg carbon monoxide (both intra-operatively and post-operatively dosed) are evaluated for safety. […] As presented herein, the relationship between carbon monoxide exposure (COHb) and cardiovascular function (i.e., QTc) at 8 hours post-treatment of subjects receiving inhaled carbon monoxide or placebo (FIG. 4) is assessed via a pharmacokinetic-pharmacodynamic (PKPD) approach. […]

In series [4] the test system is renal transplant recipients. In words: Safety of carbon monoxide dosing regimens (AEs, ECG, QTc). It counts as in vivo, human. The protocol:
as §1
All renal transplant recipients receiving carbon monoxide up to 3 mg/kg carbon monoxide (both intra-operatively and post-operatively dosed) are evaluated for safety. […] The most sensitive organs to carbon monoxide poisoning are heart and brain. As presented herein, the relationship between carbon monoxide exposure (COHb) and cardiovascular function (i.e., QTc) at 8 hours post-treatment of subjects receiving inhaled carbon monoxide or placebo (FIG. 4) is assessed via a pharmacokinetic-pharmacodynamic (PKPD) approach. Similarly, as presented herein, the relationship between subjects receiving one of various inhaled carbon monoxide doses or placebo and key neurocognitive functions (i.e., individual digit vigilance speed (FIG. 5), numeric working memory accuracy (FIG. 6) and picture recognition (FIG. 7)) up to 24 weeks post-treatment is assessed via a pharmacokinetic-pharmacodynamic (PKPD) approach.

The test system of series [5] is renal function of renal transplant recipients. Briefly: Transplanted organ (renal) function: serum creatinine and calculated GFR. It counts as in vivo, human. The protocol:
as §1
Organ function is assessed in subjects using pharmacodynamic markers representing renal functions. In particular, serum creatinine (SCr) levels are measured (using conventional methods) and glomerular filtration rate (GFR) is calculated via MDRD (GFR (mL/min/1.73 m2)=175×(Scr)−1.154× (Age)−0.203×(0.742 if female)×(1.212 if African American); as described by Levey et al., “Chronic Kidney Disease Epidemiology Collaboration. Using standardized serum creatinine values in the modification of diet in renal disease study equation for estimating glomerular filtration rate,” Ann Intern Med, 145(4):247-254 (2006)).

`[C-]#[O+]` [carbon monoxide]: the saturation point entry in series [1] is reported as “about 0.0044 g CO/100 g medium”. Further, the “CL/F, based on net COHb” value in series [2] (2.0 mg/kg, mean (n=6)) is 0.0474 mg/kg/(% * h); in series [2] (3.0 mg/kg, mean (n=5)), 0.0549 mg/kg/(% * h). In addition, the “dose-dependency of COHb Cmax and AUC (% COHb/Hb)” value in series [2] (post- and intra-operative regimens, 0.7-3 mg/kg, FIGS. 1A and 1B) was “increased with an increase in the dose of inhaled carbon monoxide in an approximately proportional manner”. Moreover, the “impact on neurocognitive functions” value in series [3] was “does not have negative impact on neurocognitive functions; also recorded: unlikely to cause QT prolongation and affect neurocognitive functions”; in series [3] (listed as CO) it was “does not show any negative impact on neurocognitive functions”. In series [4] (8 hours after inhalation, up to 3 mg/kg for 1 hour), the “QT prolongation (QTc change from baseline versus COHb)” value is “does not have an effect on QT prolongation; also recorded: unlikely to cause QT prolongation”. The tolerability entry in series [4] (all dose levels up to 3 mg/kg, intra- and post-operatively dosed) is recorded as “well tolerated”. Also, the ECG changes entry in series [4] (up to 3 mg/kg) is recorded as “no ECG changes observed on heart rate, PR interval, QRS duration or QTcF duration”. In addition, the “new morphological changes or new infarction potentials” value in series [4] (up to 3 mg/kg) is listed as “no evidence observed on new morphological changes or new infarction potentials”. Besides, the “incidence of cardiovascular and neurological AEs” value in series [4] (up to 3 mg/kg, versus placebo) was “comparable between CO and placebo treated subjects”. The “renal function (GFR and Scr)” value in series [5] (given 12-48 hours after the surgery, 0.7 or 2 mg/kg) is “does not improve renal function”; in series [5] (given during surgery (intra-operatively), 2 or 3 mg/kg), “improves renal function in a dose-dependent manner”. Besides, the “calculated GFR on Day 1 and Day 2 versus COHb concentration” value in series [5] (intra-operatively treated subjects, FIG. 2 left panel) is listed as “increased COHb is related to improved renal function (GFR)”; in series [5] (post-operatively treated subjects, FIG. 2 right panel), “increased COHb is not related to the improvement of GFR”. Also, the “serum creatinine level on Day 2 versus COHb concentration” value was “increased COHb is related to improved renal function (decreased serum creatinine)” in series [5] (intra-operatively treated subjects, FIG. 3 left panel) and “increased COHb did not improve the renal function (increased serum creatinine)” in series [5] (post-operatively treated subjects, FIG. 3 right panel).
